From patent US20250282812A1, “ANTIVIRAL NUCLEOSIDE ANALOGUE, AND PHARMACEUTICAL COMPOSITION AND USE THEREOF” (SHANGHAI INSTITUTE OF MATERIA MEDICA , CHINESE ACADEMY OF …, priority 2022, published 2025)
Where a name gives a salt, the structure may show the parent alone.

Key:
in vitro = settings: dog
[1] = Cytotoxicity in HEp-2 cells (CCK8); settings: human
[2] = system: influenza virus (IFV) A/California/07/2009 (H1N1) pdm09 strain; assay: In vitro activity against influenza virus (CPE, CCK8, MDCK cells); assay type: cell-based; settings: 120 h; for EC50: read-out: IFV (MDCK) EC50
[3] = system: respiratory syncytial virus (RSV) A long strain; assay: In vitro activity against respiratory syncytial virus (CPE, CCK8, HEp-2 cells); assay type: cell-based; settings: human respiratory syncytial virus, 120 h, MOI=0.02, 5 days; for inhibition at 5 µM: read-out: RSV (HEp-2) inhibition rate at a concentration of 5 μM
[4] = Stability test of compounds in solutions at different pH values
SFTSV-Nluc = assay: microbe, parasite or virus in culture; assay type: cell-based, severe fever with thrombocytopenia syndrome virus (SFTSV); settings: Severe fever with thrombocytopenia syndrome virus, Vero, 48 h; for inhibition at 10 µM: read-out: Inhibition rate (10 μM)

## CC(C)C(=O)OCn1c(=O)ccn([C@@H]2O[C@](F)(CO)[C@@H](O)[C@H]2O)c1=O [Compound X43]
In vitro
  CC50: > 10000 nM
[1]
  CC50 at 5 days: > 10000 nM
[2]
  EC50: 500 nM
[3]
  EC50: 2320 nM

## CCC(CC)C(=O)OCn1c(=O)ccn([C@@H]2O[C@](F)(COC(=O)C(C)C)[C@@H](O)[C@H]2O)c1=O [Compound X52]
In vitro
  CC50: > 10000 nM
[1]
  CC50 at 5 days: > 10000 nM
[4]; buffered saline solution pH 4.0, 3 h
  Content reduction (%): 0.9%
[4]; buffered saline solution pH 4.0, 6 h
  Content reduction (%): 1.4%
[4]; buffered saline solution pH 4.0, 9 h
  Content reduction (%): 1.9%
[4]; buffered saline solution pH 4.0, 12 h
  Content reduction (%): 2.2%
[4]; buffered saline solution pH 4.0, 15 h
  Content reduction (%): 2.6%
[4]; buffered saline solution pH 4.0, 18 h
  Content reduction (%): 3.0%
[4]; buffered saline solution pH 4.0, 21 h
  Content reduction (%): 3.4%
[4]; buffered saline solution pH 4.0, 24 h
  Content reduction (%): 3.6%
[4]; buffered saline solution pH 6.8, 3 h
  Content reduction (%): 1.2%
[4]; buffered saline solution pH 6.8, 6 h
  Content reduction (%): 2.3%
[4]; buffered saline solution pH 6.8, 9 h
  Content reduction (%): 3.3%
[4]; buffered saline solution pH 6.8, 12 h
  Content reduction (%): 4.3%
[4]; buffered saline solution pH 6.8, 15 h
  Content reduction (%): 5.4%
[4]; buffered saline solution pH 6.8, 18 h
  Content reduction (%): 6.6%
[4]; buffered saline solution pH 6.8, 21 h
  Content reduction (%): 7.6%
[4]; buffered saline solution pH 6.8, 24 h
  Content reduction (%): 8.7%
[2]
  EC50: 570 nM
[3]
  EC50: 4850 nM

## CCC(CC)C(=O)OC[C@@]1(F)O[C@@H](n2ccc(=O)n(COC(=O)C(C)C)c2=O)[C@H](O)[C@@H]1O [Compound X57]
In vitro
  CC50: > 5000 nM
[1]
  CC50 at 5 days: > 5000 nM
[2]; read-out: IFV (MDCK) inhibition rate at a concentration of 5 μM
  inhibition at 5 µM: 90.5%
[3]
  inhibition at 5 µM: 50.3%

## CC(C)C(=O)OCn1c(=O)ccn([C@@H]2O[C@](F)(COC(=O)C3CCCCC3)[C@@H](O)[C@H]2O)c1=O [Compound X61]
In vitro
  CC50: > 10000 nM
[1]
  CC50 at 5 days: > 10000 nM
SFTSV-Nluc
  EC50: 590 nM
  inhibition at 10 µM: 96.1%
[2]
  EC50: < 370 nM
[3]
  EC50: 2040 nM

## O=C(OCn1c(=O)ccn([C@@H]2O[C@](F)(COC(=O)C3CCCCC3)[C@@H](O)[C@H]2O)c1=O)C1CCCCC1 [Compound X63]
In vitro
  CC50: > 10000 nM
[1]
  CC50 at 5 days: > 10000 nM
[2]
  EC50: < 370 nM
[3]
  EC50: 1510 nM

## CC(C)C(=O)OCn1c(=O)ccn([C@@H]2O[C@](F)(COC(=O)[C@@H](N)C(C)C)[C@@H](OC(=O)C(C)C)[C@H]2OC(=O)C(C)C)c1=O [Compound X79]
In vitro
  CC50: > 10000 nM
[1]
  CC50 at 5 days: > 10000 nM
SFTSV-Nluc
  inhibition at 10 µM: < 10%
[2]
  EC50: 480 nM
[3]
  EC50: 1460 nM

## CC(C)C(=O)OCn1c(=O)ccn([C@@H]2O[C@](F)(COC(=O)C(C)C)[C@H]3OC(=O)O[C@@H]23)c1=O [Compound X113]
In vitro
  CC50: > 10000 nM
[1]
  CC50 at 5 days: > 10000 nM
[2]
  EC50: < 370 nM
[3]
  EC50: 1970 nM

## CC(C)=CCOc1ccn([C@@H]2O[C@](F)(COC(=O)C(C)C)[C@@H](O)[C@H]2O)c(=O)n1 [Compound X134]
In vitro
  CC50: > 10000 nM
[1]
  CC50 at 5 days: > 10000 nM
[2]
  EC50: 460 nM
[3]
  EC50: 1200 nM

## CC(C)C(=O)OCn1c(=O)ccn([C@@H]2O[C@](F)(CO)[C@H]3OC(=O)O[C@@H]23)c1=O [Compound X173]
In vitro
  CC50: > 10000 nM
[1]
  CC50 at 5 days: > 10000 nM
[2]
  EC50: 460 nM
[3]
  EC50: 2620 nM

## CC(C)C(=O)OC[C@@]1(F)O[C@@H](n2ccc(=O)n(COC(=O)CCCN(C)C)c2=O)[C@@H]2OC(=O)O[C@@H]21 [Compound X185]
[1]
  CC50 at 5 days: > 5000 nM
[3]
  inhibition at 5 µM: 94.7%

## O=C(/C=C/c1ccccc1)OCn1c(=O)ccn([C@@H]2O[C@](F)(COC(=O)/C=C/c3ccccc3)[C@@H](O)[C@H]2O)c1=O [Compound X198]
[1]
  CC50 at 5 days: > 10000 nM
[3]
  EC50: 2450 nM

## CCCCCCCCCCCCCCCC(=O)OCn1c(=O)ccn([C@@H]2O[C@](F)(COC(=O)CCCCCCCCCCCCCCC)[C@@H](O)[C@H]2O)c1=O [Compound X200]
In vitro
  CC50: > 10000 nM
[1]
  CC50 at 5 days: > 10000 nM
[2]
  EC50: 2290 nM
[3]
  EC50: 1170 nM

## CC(C)C(=O)OCn1c(=O)ccn([C@@H]2O[C@](F)(COC(=O)C(C)C)[C@@H](OC(=O)C(C)C)[C@H]2OC(=O)C(C)C)c1=O [Compound X201]
In vitro
  CC50: > 10000 nM
[1]
  CC50 at 5 days: > 10000 nM
[2]
  EC50: 560 nM
[3]
  EC50: 1510 nM

## CC(C)C(=O)OC[C@@]1(F)O[C@@H](n2ccc(=O)n(COC(=O)C3CCNCC3)c2=O)[C@H](OC(=O)C(C)C)[C@@H]1OC(=O)C(C)C [Compound X204]
In vitro
  CC50: > 10000 nM
[1]
  CC50 at 5 days: > 10000 nM
[2]
  EC50: 650 nM
[3]
  EC50: 1520 nM

## CC(C)C(=O)OC[C@@]1(F)O[C@@H](n2ccc(=O)n(COC(=O)C3CCN(C)CC3)c2=O)[C@H](OC(=O)C(C)C)[C@@H]1OC(=O)C(C)C [Compound X205]
In vitro
  CC50: > 10000 nM
[1]
  CC50 at 5 days: > 10000 nM
[2]
  EC50: < 370 nM
[3]
  EC50: 2560 nM

## CC(C)C(=O)OCn1c(=O)ccn([C@@H]2O[C@](F)(COC(=O)c3cccnc3)[C@@H](O)[C@H]2O)c1=O [Compound X208]
In vitro
  CC50: > 10000 nM
[2]
  EC50: < 370 nM
[3]
  EC50: 1090 nM

## CC(C)(C)C(=O)OC[C@@]1(F)O[C@@H](n2ccc(=O)n(COC(=O)c3cccnc3)c2=O)[C@H](O)[C@@H]1O [Compound X210]
In vitro
  CC50: > 10000 nM
[1]
  CC50 at 5 days: > 10000 nM
[2]
  EC50: < 370 nM
[3]
  EC50: 1880 nM

## CCC(CC)C(=O)OC[C@@]1(F)O[C@@H](n2ccc(=O)n(COC(=O)c3cccnc3)c2=O)[C@H](O)[C@@H]1O [Compound X211]
In vitro
  CC50: > 10000 nM
[1]
  CC50 at 5 days: > 10000 nM
[2]
  EC50: 3340 nM
[3]
  EC50: 5820 nM

## CC(C)C(=O)OC[C@@]1(F)O[C@@H](n2ccc(=O)n(COC(=O)c3cccnc3)c2=O)[C@@H]2OC(=O)O[C@@H]21 [Compound X214]
In vitro
  CC50: > 10000 nM
[1]
  CC50 at 5 days: > 10000 nM
[2]
  EC50: < 370 nM
[3]
  EC50: 2090 nM

## CCC(=O)OC[C@@]1(F)O[C@@H](n2ccc(=O)n(COC(=O)c3cccnc3)c2=O)[C@H](OC(=O)CC)[C@@H]1OC(=O)CC [Compound X220]
In vitro
  CC50: > 10000 nM
[1]
  CC50 at 5 days: > 10000 nM
[2]
  EC50: 819 nM
[3]
  EC50: 1290 nM

## CCC(CC)C(=O)OCn1c(=O)ccn([C@@H]2O[C@](F)(COC(=O)c3cccnc3)[C@@H](O)[C@H]2O)c1=O [Compound X223]
In vitro
  CC50: > 10000 nM
[1]
  CC50 at 5 days: > 10000 nM
[2]
  EC50: 820 nM
[3]
  EC50: 2140 nM

## O=C(OCn1c(=O)ccn([C@@H]2O[C@](F)(COC(=O)c3cccnc3)[C@@H](O)[C@H]2O)c1=O)c1cccnc1 [Compound X231]
In vitro
  CC50: > 10000 nM
[1]
  CC50 at 5 days: > 10000 nM
[2]
  EC50: 510 nM
[3]
  EC50: 1160 nM

## O=C(OCn1c(=O)ccn([C@@H]2O[C@](F)(COC(=O)c3cccnc3)[C@@H](OC(=O)c3cccnc3)[C@H]2OC(=O)c2cccnc2)c1=O)c1cccnc1 [Compound X232]
In vitro
  CC50: > 10000 nM
[1]
  CC50 at 5 days: > 10000 nM
[2]
  EC50: 850 nM
[3]
  EC50: 1130 nM

## O=C1O[C@H]2[C@H](n3ccc(=O)n(COC(=O)c4cccnc4)c3=O)O[C@](F)(COC(=O)c3cccnc3)[C@H]2O1 [Compound X233]
In vitro
  CC50: > 10000 nM
[1]
  CC50 at 5 days: > 10000 nM
[2]
  EC50: 460 nM
[3]
  EC50: 1200 nM

## CC(C)C(=O)O[C@H]1[C@H](n2ccc(=O)n(COC(=O)c3cccnc3)c2=O)O[C@](F)(COC(=O)c2cccnc2)[C@H]1OC(=O)C(C)C [Compound X257]
In vitro
  CC50: > 10000 nM
[1]
  CC50 at 5 days: > 10000 nM
[2]
  EC50: 1380 nM
[3]
  EC50: 1640 nM

## CCN(CC)CC(=O)OCn1c(=O)ccn([C@@H]2O[C@](F)(COC(=O)C(C)C)[C@@H](OC(=O)C(C)C)[C@H]2OC(=O)C(C)C)c1=O [Compound X260]
In vitro
  CC50: > 10000 nM
[1]
  CC50 at 5 days: > 10000 nM
[2]
  EC50: < 370 nM
[3]
  EC50: 2340 nM

## CC(C)C(=O)OC[C@@]1(F)O[C@@H](n2ccc(=O)n(COC(=O)CN(C)C)c2=O)[C@H](OC(=O)C(C)C)[C@@H]1OC(=O)C(C)C [X100 hydrochloride]
In vitro
  CC50: > 10000 nM
[1]
  CC50 at 5 days: > 10000 nM
[2]
  EC50: 410 nM
[3]
  EC50: 1790 nM
